Results reported in patent publication US20200093843A1, “COMPOUNDS FOR TREATMENT OF INTRACTABLE EPILEPSY AND DOORS SYNDROME” (VIB VZW, priority 2016, published 2020).
“Also recorded” adds a separate entry of the source.

How the values were obtained:
[1] = described in literature; listed as erufosine; cited from earlier work
[2] = molecular target: T1, wild type Sky1-353 (TBC domain of Skywalker) (Drosophila melanogaster, UniProt Q9VIH7); assay: Thermal shift assay, ligand binding to wild type Sky1-353
T1 construct: the TBC domain of Sky (Sky1-353) was expressed from the pET28a vector (Novagen) as an N-terminal His6-tag fusion; His6 (N); made in house; host or cells: E. coli C41 (DE3)
T1 sequence (Q9VIH7 1-353): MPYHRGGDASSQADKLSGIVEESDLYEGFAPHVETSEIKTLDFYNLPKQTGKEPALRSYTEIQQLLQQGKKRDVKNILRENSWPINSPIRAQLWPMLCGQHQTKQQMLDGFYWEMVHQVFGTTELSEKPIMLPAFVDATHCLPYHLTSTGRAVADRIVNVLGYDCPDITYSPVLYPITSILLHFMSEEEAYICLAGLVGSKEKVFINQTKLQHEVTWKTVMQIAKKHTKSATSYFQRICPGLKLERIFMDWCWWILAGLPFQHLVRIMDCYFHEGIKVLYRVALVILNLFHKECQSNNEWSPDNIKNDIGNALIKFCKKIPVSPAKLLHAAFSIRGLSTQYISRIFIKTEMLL
Experimental: (§1) Thermal unfolding was detected by following SYPRO orange fluorescence using a CFX connect Real-Time PCR System (BioRad). […] The temperature was increased from 20° C. to 80° C. at 0.5° C./30s steps. All measurements were done in triplicate.

Sky1-353 R79C mutant = molecular target: T2, Sky1-353 R79C mutant (Drosophila melanogaster, UniProt Q9VIH7, R79C); assay: Thermal shift assay, IP3 binding to Sky1-353 R79C
T2 construct: the TBC domain of Sky (Sky1-353) was expressed from the pET28a vector (Novagen) as an N-terminal His6-tag fusion; His6 (N); made in house; host or cells: E. coli C41 (DE3)
T2 sequence (Q9VIH7 1-353 R79C): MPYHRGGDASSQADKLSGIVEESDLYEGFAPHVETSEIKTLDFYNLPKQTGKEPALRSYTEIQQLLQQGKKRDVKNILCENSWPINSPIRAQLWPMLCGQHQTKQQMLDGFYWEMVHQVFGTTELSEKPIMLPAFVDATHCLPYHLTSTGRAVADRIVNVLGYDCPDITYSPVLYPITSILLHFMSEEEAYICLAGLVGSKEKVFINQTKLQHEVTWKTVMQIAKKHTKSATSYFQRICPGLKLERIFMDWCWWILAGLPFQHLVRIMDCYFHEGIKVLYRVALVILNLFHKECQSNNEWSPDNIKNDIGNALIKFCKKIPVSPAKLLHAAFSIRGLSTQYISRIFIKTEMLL
Experimental: (§2) The thermal stability of the R79C and R281C mutants in absence of ligands (Tm=32° C.) is somewhat lower compared to the wild type protein (Tm=34° C.) and the R335P mutant (Tm=35° C.). […] These experimental data moreover correspond with our structural data where R79 and R281 both form bifurcated electrostatic interactions with the phosphate on position 5, while R335 forms a single electrostatic interaction with the phosphate group on position 1 (FIG. 3e).
as §1

Sky1-353 R281C mutant = molecular target: T3, Sky1-353 R281C mutant (Drosophila melanogaster, UniProt Q9VIH7, R281C); assay: Thermal shift assay, IP3 binding to Sky1-353 R281C; conditions: saturating amount of IP3, R281C mutant
T3 construct: the TBC domain of Sky (Sky1-353) was expressed from the pET28a vector (Novagen) as an N-terminal His6-tag fusion; His6 (N); made in house; host or cells: E. coli C41 (DE3)
T3 sequence (Q9VIH7 1-353 R281C): as the sequence (Q9VIH7 1-353 R79C) above, with C79R, R281C counted along it
Experimental: as §2, §1

Sky1-353 R335P mutant = molecular target: T4, Sky1-353 R335P mutant (Drosophila melanogaster, UniProt Q9VIH7, R335P); assay: Thermal shift assay, IP3 binding to Sky1-353 R335P
T4 construct: the TBC domain of Sky (Sky1-353) was expressed from the pET28a vector (Novagen) as an N-terminal His6-tag fusion; His6 (N); made in house; host or cells: E. coli C41 (DE3)
T4 sequence (Q9VIH7 1-353 R335P): as the sequence (Q9VIH7 1-353 R79C) above, with C79R, R335P counted along it
Experimental: as §2, §1

[3] = tested on: sky^1/2 mutants expressing Sky^R79C; assay: Seizure assay in drug-fed flies; type: in vivo, Drosophila; conditions: for rescue of seizure-like behaviour: versus mock-treated
Experimental: To assure that stimulation of PI(4,5)P2 levels in vivo can rescue the defects associated with the Skywalker cationic pocket mutants (Sky^R79C), a commercially available alkyl phospholipid compound, Miltefosine, with known impact on PI(4,5)P2 levels was tested for treatment of gender selected adult 4-7 day old sky^1/2 flies with cationic pocket mutations. For drug feeding, 10-20 flies per treatment vial were maintained in a 12 h light and dark cycle to maintain circadian rhythm, while the analysis was performed on 5 flies per vial for flight, after acclimatization to the test chamber, and 10 flies per vial for stimulation or behavioural challenge by vortexing. In total n=20 flies were analyzed per treatment as well as for the control flies reared on normal food (mock-treated). The effect of Miltefosine (Sigma, M5571) daily administered in dyed food at 50 μg/mL or at 100 μg/mL was tested over a feeding period of 2 and 8 days of drug exposure, after which animal behaviour was analyzed via flight and seizure assays.
Each data point represents averages of 10 animals tested over 8 days and analyzed per drug treatment as well as the control flies reared on normal food (mock-treated).
For drug treatment, a concentration range between […] was tested for daily administration. […] Treatments were performed and were tested over a feeding period of 2 and 8 days of drug exposure, after which animal behaviour was tested in flight and seizure assays.
Adult flies of the genotype sky^1/sky^2 (sky^1/2); nsyb-Gal4/UAS-Sky^R79C or genotypes as indicated, were raised at 21° C. on standard fly food, containing the indicated drugs (Miltefosine, Perifosine, Edelfosine, Erufosine) or on control food prepared without drugs. Animals were collected and gender selected 2 to 5 days after enclosure. On days 2 and 8 of incubation on drugs, flight assays were performed with groups of 5 gender-selected animals in each transparent vial. Following a tap to collect the animals at the bottom of the vial, behaviour was distinguished between walking, jumping and flight. Seizure assays were performed with groups of 10 gender-selected animals that were transferred into transparent vials and excited by vortexing once for 10 seconds in behaviour studies, or in a sequence (1 minute vortexing, 1 minute rest, 1 minute vortexing) for drug treatment studies. This test sequence was repeated following 5 minutes of rest. Active and fallen flies were quantified over the course of the following minute. To ensure natural behaviour animals were not anesthetized on the day of experiments or over the course of drug application.

[4] = molecular target: T5, 5′-phosphatase domain of Synaptojanin-1 (Homo sapiens, UniProt O43426); assay: Malachite Green phosphatase assay; type: biochemical; conditions: 1 mM compound, 1% DMSO, 40 μM IP3 substrate, 1 h, background subtracted
T5 construct: made in house
T5 sequence (O43426 528-873): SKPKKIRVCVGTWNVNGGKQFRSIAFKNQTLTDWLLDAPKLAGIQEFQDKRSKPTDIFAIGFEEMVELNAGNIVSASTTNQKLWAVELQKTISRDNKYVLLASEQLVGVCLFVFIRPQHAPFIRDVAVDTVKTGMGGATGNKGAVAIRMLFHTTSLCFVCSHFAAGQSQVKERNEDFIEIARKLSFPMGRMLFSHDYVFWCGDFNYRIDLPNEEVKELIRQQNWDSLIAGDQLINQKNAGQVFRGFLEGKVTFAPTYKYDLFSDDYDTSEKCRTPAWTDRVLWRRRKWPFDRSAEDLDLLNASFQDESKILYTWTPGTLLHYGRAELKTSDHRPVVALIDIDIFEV
Excerpt: First, an expression plasmid for the recombinant expression of the 5′-phosphatase domain of Synj1 (SEQ ID NO:1) was constructed. […] A commercially available assay in a 96-well plate format is the Malachite Green Phosphate Assay Kit (BioAssay Systems).
After assay optimization, the assay is used to measure inhibitory activity of known compounds as well as to further allow a high-throughput setup for compound screening.
The Malachite Green Phosphate Assay Kit (BioAssay Systems) is a discontinuous assay that measures the concentrations of enzymatically released phosphate after formation of a complex with malachite green and molybdate (absorbance is measured at 620 nm). […] As a read-out the Absorbance at 620 nm after 60 min incubation is measured and the background starting signal is subtracted. For inhibitory compound screening, 1 mM of the test compound dissolved in 1% DMSO was used.

wild type Sky1-353 = molecular target: T6, wild type Sky1-353 (Drosophila melanogaster, UniProt Q9VIH7); assay: Liposome flotation assay; type: binding; conditions: for binding of Sky1-353 to liposomes: PC:PS liposomes enriched with 2% of the indicated phosphoinositide
T6 construct: the TBC domain of Sky (Sky1-353) was expressed from the pET28a vector (Novagen) as an N-terminal His6-tag fusion; His6 (N); made in house; host or cells: E. coli C41 (DE3)
T6 sequence (Q9VIH7 1-353): T1 sequence (Q9VIH7 1-353)
Excerpt: TBC1D24 and Skywalker regulate vesicle trafficking, a process that requires membrane interactions^20,24,30. We therefore hypothesized that the positively charged pocket of Sky serves as a binding module to negatively charged membranes. We used a liposome flotation assay and mixed Sky1-353 with liposomes produced from Folch-extracted total brain lipids and centrifuged the sample in a sucrose gradient. After recovering six fractions from the top to the bottom of the centrifugation tube we find that Sky1-353 is present in the top fractions that contain the liposomes. […] A major class of lipids that regulates presynaptic activity are phosphoinositides^31. Lipid strip interaction experiments using Sky1-353 are indeed compatible with Sky interacting with phosphoinositides. We therefore resorted to liposome flotation assays using liposomes composed of phosphatidylcholine and phosphatidylserine and supplemented with different types of phosphoinositides (FIG. 3b). […] Moreover, the binding can be reversed by adding increasing concentrations of salt, as would be expected from binding that is mainly driven by electrostatic interactions.
Liposomes were prepared using either Folch brain total lipid extract or using a mix of phosphatidylcholine and phosphatidylserine (80:20 ratio) supplemented with 0.5%, 2% or 5% of a specific phosphoinositide as indicated. The liposomes were subsequently incubated with 6 μg of wild-type or mutant Sky1-353. PI(4,5)P2-Grip (Echelon Biosciences, Salt Lake City, USA) was used as a positive control. Subsequently, this mix was loaded on a sucrose cushion (30% sucrose layer, 25% sucrose layer and HP30 buffer layer) and centrifuged. Individual fractions from the top to the bottom were collected and assayed using Western blotting against His6 (Sky) or GST (PI(4,5)P2-Grip).

[5] = PI(4,5)P2 varied from 0% to 5% in liposomes

## CCCCCCCC/C=C\CCCCCCCCCCCCOP(=O)([O-])OCC[N+](C)(C)C [Erufosine]
[1]
  blood-brain-barrier crossing: known to allow BBB crossing

## O=P(O)(O)O[C@@H]1[C@H](O)[C@H](O)[C@@H](OP(=O)(O)O)[C@H](OP(=O)(O)O)[C@H]1O [IP3, inositol 1,4,5-trisphosphate]
[2]
  Kd: 19 ± 3 µM
Sky1-353 R79C mutant
  Kd: 325 ± 200 µM
Sky1-353 R79C mutant; saturating amount of IP3, R79C mutant
  increase in thermal stability: 4 °C
Sky1-353 R281C mutant
  increase in thermal stability: 4 °C
Sky1-353 R335P mutant
  Kd: 67 ± 17 µM
Sky1-353 R335P mutant; saturating amount of IP3, R335P mutant
  increase in thermal stability: 8 °C

## CCCCCCCCCCCCCCCCOP(=O)([O-])OCC[N+](C)(C)C [Miltefosine]
[3]; 50 μg/mL in food, 2 days of drug feeding, p<0.001
  rescue of seizure-like behaviour: highly significant; also recorded: significant rescue of seizure-like behaviour
[3]; 50 μg/mL in food, 8 days of drug feeding, p<0.1
  rescue of seizure-like behaviour: lasted at least up to 8 days after treatment; also recorded: significant rescue of seizure-like behaviour
[3]; 100 μg/mL in food (probably toxic), 2 or 8 days
  rescue of seizure-like behaviour: did not lead to significant difference
[4]
  inhibition of 5′-phosphatase activity: effective inhibitors; also recorded: complete inhibition

## CCCCCCCCCCCCCCCCCCOP(=O)([O-])OC1CC[N+](C)(C)CC1 [Perifosine]
[3]; 1000 μg/mL daily in dyed food, up to 8 days
  effect on seizures: positive effect
[4]
  inhibition of 5′-phosphatase activity: effective inhibitors
[4]; listed as Perisofine
  inhibition of 5′-phosphatase activity: complete inhibition

## PI(3)P
Wild type Sky1-353
  binding of Sky1-353 to liposomes: does not bind

## PI(3,4,5)P3
Wild type Sky1-353
  binding of Sky1-353 to liposomes: strongest binding

## PI(4)P
Wild type Sky1-353
  binding of Sky1-353 to liposomes: weak but significant binding

## PI(5)P
Wild type Sky1-353
  binding of Sky1-353 to liposomes: weak but significant binding

## phosphatidylinositol 4,5-bisphosphate [PI(4,5)P2]
Wild type Sky1-353
  binding of Sky1-353 to liposomes: strongest binding
Wild type Sky1-353; [5]
  PI(4,5)P2 concentration at which full binding is reached: 2%
  lowest PI(4,5)P2 concentration at which binding is observed: 0.5%

## phosphatidylinositol [PI]
Wild type Sky1-353
  binding of Sky1-353 to liposomes: does not bind
